Measured values: patent US6020521A, “Macrolide LHRH antagonists” (Abbott Laboratories, priority 1998, dated 2000)

Biological target: T1, LHRH rat pituitary receptor (Rattus norvegicus, UniProt P30969)
T1 construct: from tissue; host or cells: rat pituitary
T1 sequence (P30969 1-327): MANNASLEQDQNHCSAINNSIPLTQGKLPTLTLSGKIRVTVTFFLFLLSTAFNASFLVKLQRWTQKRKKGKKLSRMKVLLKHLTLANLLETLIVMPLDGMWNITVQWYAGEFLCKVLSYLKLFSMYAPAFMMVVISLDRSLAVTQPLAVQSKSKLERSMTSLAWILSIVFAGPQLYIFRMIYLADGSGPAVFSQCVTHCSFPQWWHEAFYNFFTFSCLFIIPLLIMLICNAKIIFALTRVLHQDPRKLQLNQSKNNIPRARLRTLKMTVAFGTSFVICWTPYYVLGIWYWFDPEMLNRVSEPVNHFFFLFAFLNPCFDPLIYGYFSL
Assay: LHRH rat pituitary receptor binding (pKI)
Settings: receptor binding affinity, negative logarithm of the equilibrium dissociation constants
Procedure: Representative compounds of the present invention were evaluated in in vitro tests for LHRH rat pituitary receptor binding (pKI) and for LH inhibition from rat pituitary cells for antagonist potency (pA2). The tests employed the methods detailed in F. Haviv, et al. J. Med. Chem., 32: 2340-2344 (1989). The receptor binding affinity (pKI) is the negative logarithm of the equilibrium dissociation constants.

Row | Structure (SMILES) | Ki [nM]
1 | CC[C@H]1OC(=O)[C@H](C)[C@@H](OC(=O)N2C(=S)OC[C@@H]2C)[C@H](C)[C@@H](O[C@@H]2O[C@H](C)C[C@H](N(C)CC3CC3)[C@H]2O)[C@](C)(OC)C[C@@H](C)C(=O)[C@H](C)[C@H]2N(CCc3ccc(Cl)c(Cl)c3)C(=O)O[C@]12C [Example 41, 11-Deoxy-11-[carboxy(3,4-dichlorophenethyl)amino]-3-O-[4-(S)-methyl-oxazolidin-2-thione]carbamoyl-5-O-(3'-N-desmethyl-3'-N-cyclopropylmethyl)desosaminyl-6-O-methyl-erythronolide A 11,12-(cyclic carbamate)] | 10.2
2 | CC[C@H]1OC(=O)[C@H](C)[C@@H](OC(=O)N2C(=O)SC[C@@H]2C)[C@H](C)[C@@H](O[C@@H]2O[C@H](C)C[C@H](N(C)CC3CC3)[C@H]2O)[C@](C)(OC)C[C@@H](C)C(=O)[C@H](C)[C@H]2N(CCc3ccc(Cl)c(Cl)c3)C(=O)O[C@]12C [Example 40, 11-Deoxy-11-[carboxy(3,4-dichlorophenethyl)amino]-3-O-[4-(S)-methyl-thiazolidin-2-one]carbamoyl-5-O-(3'-N-desmethyl-3'-N-cyclopropylmethyl)desosaminyl-6-O-methyl-erythronolide A 11,12-(cyclic carbamate)] | 8.13
3 | CC[C@H]1OC(=O)[C@H](C)[C@@H](OC(=O)N2C(=O)OC[C@@H]2C)[C@H](C)[C@@H](O[C@@H]2O[C@H](C)C[C@H](NCC3CC3)[C@H]2O)[C@](C)(OC)C[C@@H](C)C(=O)[C@H](C)[C@H]2N(CCc3ccc(Cl)c(Cl)c3)C(=O)O[C@]12C [Example 45, 11-Deoxy-11-[carboxy(3,4-dichlorophenethyl)amino]-3-O-[4-(S)-methyl-oxazolidin-2-one]carbamoyl-5-O-(3'-bis-N-desmethyl-3'-N-cyclopropylmethyl)desosaminyl-6-O-methyl-erythronolide A 11,12-(cyclic carbamate)] | 8.13

Stronger by Ki, values ahead:

Row | Ki [nM] | Structure (SMILES)
4 | 0.955 | CCCN(C)[C@H]1C[C@@H](C)O[C@@H](O[C@@H]2[C@@H](C)[C@H](OC(=O)N3C(=O)OC[C@@H]3C)[C@@H](C)C(=O)O[C@H](CC)[C@@]3(C)OC(=O)N(CCc4ccc(F)cc4)[C@@H]3[C@@H](C)C(=O)[C@H](C)C[C@@]2(C)OC)[C@@H]1O [Example 31, 11-Deoxy-11-[carboxy(4-fluorophenethyl)amino]-3-O-[4-(S)-methyl-oxazolidin-2-one]carbamoyl-5-O-(3'-N-desmethyl-3'-N-n-propyl)desosaminyl-6-O-methyl-erythronolide A 11,12-(cyclic carbamate)]
5 | 0.0832 | CC[C@H]1OC(=O)[C@H](C)[C@@H](OC(=O)N2C(=O)OC[C@@H]2C)[C@H](C)[C@@H](O[C@@H]2O[C@H](C)C[C@H](N(C)C3CCC3)[C@H]2O)[C@](C)(OC)C[C@@H](C)C(=O)[C@H](C)[C@H]2N(CCc3ccc(F)c(Cl)c3)C(=O)O[C@]12C [Example 34, 11-Deoxy-11-[carboxy(3-chloro-fluorophenethyl)amino]-3-O-[4-(S)-methyl-oxazolidin-2-one]carbamoyl-5-O-(3'-N-desmethyl-3'-N-cyclobutyl)desosaminyl-6-O-methyl-erythronolide A 11,12-(cyclic carbamate)]
6 | 0.692 | CC[C@H]1OC(=O)[C@H](C)[C@@H](OC(=O)N2C(=O)OC[C@@H]2C)[C@H](C)[C@@H](O[C@@H]2O[C@H](C)C[C@H](N(CC3CC3)CC3CC3)[C@H]2O)[C@](C)(OC)C[C@@H](C)C(=O)[C@H](C)[C@H]2N(CCc3ccc(F)c(Cl)c3)C(=O)O[C@]12C [Example 43, 11-Deoxy-11-[carboxy(3-chloro-4-fluorophenethyl)amino]-3-O-[4-(S)-methyl-oxazolidin-2-one]carbamoyl-5-O-(3'-bis-N-desmethyl-3'-bis-N-cyclopropylmethyl)desosaminyl-6-O-methyl-erythronolide A 11,12-(cyclic carbamate)]
